Assay results reported in patent publication US20230322724A1, “HETEROCYCLIC COMPOUNDS AS CBP/EP300 BROMODOMAIN INHIBITORS” (AURIGENE ONCOLOGY LIMITED, priority 2020, published 2023).

How the values were obtained:
Type in all cases: binding
[1] = molecular target: T1, recombinant CREBBP bromodomain (Homo sapiens, UniProt Q92793); test: CBP TR-FRET displacement assay; conditions: for IC50: dose-response, read-out: IC50 (group A, B, C); for inhibition at 10 µM: compound at 10 μM
T1 construct: recombinant CREBBP bromodomain obtained from BPS Bioscience, USA; purchased BPS Bioscience, USA
Outline: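 CREBBP bromodomain (50 nM) preincubated 30 min at room temperature with 500 nM biotinylated ligand in HEPES pH 7.5 buffer with TCEP, then 60 min with compound. Eu-anti-His/APC-streptavidin TR-FRET 665/615 nm ratio read; IC50 from sigmoidal dose-response fit.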

[2] = molecular target: T2, recombinant P300 bromodomain (Homo sapiens, UniProt Q09472); test: P300 TR-FRET displacement assay; conditions: dose-response, read-out: IC50 (group A, B, C)
T2 construct: recombinant P300 bromodomain obtained from BPS Bioscience, USA; purchased BPS Bioscience, USA
T2 sequence (Q09472 1049-1156 limits assumed): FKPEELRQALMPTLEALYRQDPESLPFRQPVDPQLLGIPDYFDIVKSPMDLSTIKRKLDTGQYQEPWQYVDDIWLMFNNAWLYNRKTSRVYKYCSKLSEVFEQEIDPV
Experimental: The potency of compounds to inhibit P300 enzyme was tested in a TR-FRET displacement assay using recombinant P300 bromodomain obtained from BPS Bioscience, USA. The assay buffer was 50 mM HEPES (pH 7.5), 50 mM NaCl, 0.008% Brij 35, 0.01% BSA, 1 mM TCEP. 50 nM of P300 & 500 nM of Biotinylated ligand was incubated at room temperature for 30 minutes, the reaction was initiated by adding the pre-incubated enzyme ligand mixture to the test compounds. After 60 min incubation, the reaction was stopped by the addition of stop mix containing 1 nM of LANCE Europium-anti-6xHis antibody (Perkin Elmer, USA) and 40 nM of Sure Light Allophycocyanin-Streptavidin (Perkin Elmer, USA). Fluorescence emission of the samples at 665 and 615 nm were measured at an excitation of 340 nm and their ratio was plotted against the compound concentrations to generate dose-response curve.
Selected compounds of the present invention were screened in the above-mentioned assay procedures and IC50 values were determined by fitting the dose-response data to sigmoidal curve fitting equation using Graph pad prism software V7.

[3] = molecular target: T3, recombinant BRD4 FL bromodomain (Homo sapiens, UniProt O60885); test: BRD4 FL TR-FRET displacement assay; conditions: BRD4 FL; for IC50: dose-response, read-out: IC50 (group A, B, C); for inhibition at 10 µM: compound at 10 μM, read-out: % Inhibition (10 μM)
T3 construct: fused on or other part: 6xHis tag, inferred from detection with Mab ANTI 6HIS-XL665
Outline: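 Recombinant BRD4 FL (10 nM) pre-incubated 30 min at room temperature with 300 nM biotinylated acetyl-histone H4 (K5/8/12/16) in 50 mM HEPES pH 7.5, 50 mM NaCl, 500 μM CHAPS, then added to compounds for 30 min. Stopped with Eu-streptavidin/anti-6His-XL665 in KF; 665/615 nm ratio fitted sigmoidally for IC50.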

T1 sequence (Q92793 1085-1192 limits assumed): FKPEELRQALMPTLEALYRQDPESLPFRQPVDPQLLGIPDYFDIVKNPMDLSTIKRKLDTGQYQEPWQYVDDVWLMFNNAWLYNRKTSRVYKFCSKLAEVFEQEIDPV

Row | IC50 [1] [nM] | IC50 [2] [nM] | IC50 [3] [nM] | inhibition at 10 µM [1] [%] | inhibition at 10 µM [3] [%] | SMILES
1 | > 10 | > 50000 | 2010 to 5000 | – | – | CN1CCN(c2cccc3c2cc(N)c(=O)n3C)c2cc(C#N)c(-c3cnn(C)c3)cc21 [Example 77, 4-(3-Amino-1-methyl-2-oxo-1,2-dihydroquinolin-5-yl)-1-methyl-7-(1-methyl-1H-pyrazol-4-yl)-1,2,3,4-tetrahydroquinoxaline-6-carbonitrile]
2 | < 50 | > 50000 | – | 90 | 77 | COc1cc(N2CCN(C)c3cc(-c4cnn(C)c4)c(C#N)cc32)c2cc(C)c(=O)[nH]c2c1 [Example 7]
3 | < 50 | 25 to 50 | – | 96 | 81 | Cc1cc2c(N3CCN(C)c4cc(-c5cnn(C)c5)c(C#N)cc43)cccc2n(C)c1=O [Example 42]
4 | < 50 | 25 to 50 | 2010 to 5000 | – | – | COc1cc(N2CCN(C)c3cc(F)c(S(N)(=O)=O)cc32)c2cc(C)c(=O)n(C)c2c1 [Example 86]
5 | < 50 | < 25 | 2010 to 5000 | – | – | COc1cc(N2CCN(C)c3ccc(S(N)(=O)=O)cc32)c2cc(C)c(=O)n(C)c2c1 [Example 94]
6 | < 50 | 25 to 50 | 2010 to 5000 | – | – | COc1cc(N2CCN(C)c3cc(C(=O)O)c(C#N)cc32)c2cc(C)c(=O)n(C)c2c1 [Example 68, 7-cyano-1-(7-methoxy-1,3-dimethyl-2-oxo-1,2-dihydroquinolin-5-yl)-4-methyl-1,2,3,4-tetrahydroquinoxaline-6-carboxylic acid]
7 | 51 to 100 | < 25 | 2010 to 5000 | – | – | Cc1cc2c(N3CCCc4cc(-c5cnn(C)c5)c(C(F)F)cc43)cncc2n(C)c1=O [Example 180]
8 | < 50 | < 25 | – | – | 39 | CNC(=O)c1cc2c(cc1C#N)N(c1cc(OC)cc3c1cc(C)c(=O)n3C)CCN2C [Example 69, 7-cyano-1-(7-methoxy-1,3-dimethyl-2-oxo-1,2-dihydroquinolin-5-yl)-N,4-dimethyl-1,2,3,4-tetrahydroquinoxaline-6-carboxamide]
9 | > 10 | > 50000 | 2010 to 5000 | 100 | – | Cc1cc2c(N3CCN(C)c4cc(-c5cnn(C)c5)ccc43)cccc2[nH]c1=O [Example 6]
